Experimental data as given in US11203600B2 (Denali Therapeutics Inc., priority 2017, dated 2021).

The molecules below were run against GST-hRIPK1 (8-327) (Homo sapiens (Human), UniProt Q13546) (assay: Fluorescent Polarization Binding (FP Binding) assay, RIPK1). Settings: 10 nM GST-hRIPK1 (8-327), 5 nM fluorescent-labeled ligand, RT, 30 min, mean of at least two independent experiments.
Chain of GST-hRIPK1 (8-327) (Q13546 8-327): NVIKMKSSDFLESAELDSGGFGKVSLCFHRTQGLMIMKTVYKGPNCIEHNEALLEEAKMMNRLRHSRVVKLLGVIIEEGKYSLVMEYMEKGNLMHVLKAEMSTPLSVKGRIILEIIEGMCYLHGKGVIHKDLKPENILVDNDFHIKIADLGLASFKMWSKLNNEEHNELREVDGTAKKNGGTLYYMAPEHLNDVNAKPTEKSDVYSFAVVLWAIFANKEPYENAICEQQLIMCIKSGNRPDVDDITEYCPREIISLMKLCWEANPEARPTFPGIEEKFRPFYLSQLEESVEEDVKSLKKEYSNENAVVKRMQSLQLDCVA
Summary of the method: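 Binding by fluorescence polarisation at RT: 10 nM baculovirus-expressed GST-hRIPK1 (8-327) and 5 nM fluorescent ligand, 30 min, in 50 mM HEPES pH 7.5, 50 mM MgCl2, 0.02% CHAPS, 1% DMSO. FP read at ex 531/em 595 nm. IC50 from normalised percent inhibition, mean of ≥2 experiments.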
`CCC(C)(CC)C(=O)N1CCOc2c(C#N)cncc2C1` [Example 151, 4-(2-ethyl-2-methyl-butanoyl)-3,5-dihydro-2H-pyrido[3,4-f][1,4]oxazepine-9-carbonitrile] was tested, and the IC50 was 0.1 to 100 nM. `CC(C)(C(=O)N1CCOc2ccc(Cl)cc2C1)C(F)F` [Example 10, 1-(7-chloro-2,3-dihydrobenzo[f][1,4]oxazepin-4(5H)-yl)-3,3-difluoro-2,2-dimethylpropan-1-one] showed an IC50 of 100 to 1000 nM. `CC(C)COC(=O)N1CCC(F)(C(=O)N2CCOc3c(C#N)cncc3C2)CC1` [Example 174, isobutyl 4-(9-cyano-3,5-dihydro-2H-pyrido[3,4-f][1,4]oxazepine-4-carbonyl)-4-fluoro-piperidine-1-carboxylate] was tested, and the IC50 was greater than 1000 nM. `COC1(C(=O)N2CCOc3c(F)cncc3C2)CCN(c2ncccn2)CC1` [Example 135, (9-fluoro-3,5-dihydro-2H-pyrido[3,4-f][1,4]oxazepin-4-yl)-(4-methoxy-1-pyrimidin-2-yl-4-piperidyl)methanone] showed an IC50 of 0.1 to 100 nM. `COc1ccnc(N2CCC(F)(C(=O)N3CCOc4c(C#N)cncc4C3)CC2)n1` [Example 103, 4-[4-fluoro-1-(4-methoxypyrimidin-2-yl)piperidine-4-carbonyl]-3,5-dihydro-2H-pyrido[3,4-f][1,4]oxazepine-9-carbonitrile] showed an IC50 of 0.1 to 100 nM. Molecule `CC(C)(C(=O)N1CCOc2c(C#N)cccc2C1)C(F)F` [Example 23, 4-(3,3-difluoro-2,2-dimethyl-propanoyl)-3,5-dihydro-2H-1,4-benzoxazepine-9-carbonitrile] has an IC50 of 0.1 to 100 nM. `N#Cc1cncc2c1OCCN(C(=O)C13CC(C1)C3)C2` [Example 44, 4-(bicyclo[1.1.1]pentane-3-carbonyl)-3,5-dihydro-2H-pyrido[3,4-f][1,4]oxazepine-9-carbonitrile] showed an IC50 greater than 1000 nM. `CC(C)C(C)(C)C(=O)N1CCOc2c(C#N)cncc2C1` [Example 145, 4-(2,2,3-trimethylbutanoyl)-3,5-dihydro-2H-pyrido[3,4-f][1,4]oxazepine-9-carbonitrile] was tested, and the IC50 was 0.1 to 100 nM. `CC1COc2ccccc2CN1C(=O)C(C)(C)C(F)F` (centres unmarked) [Example 21, 3,3-difluoro-2,2-dimethyl-1-(3-methyl-2,3-dihydrobenzo[f][1,4]oxazepin-4(5H)-yl)propan-1-one] was tested, and the IC50 was 0.1 to 100 nM. `N#Cc1cncc2c1OCCN(C(=O)C1(F)CCN(c3ncccn3)CC1)C2` [Example 157, 4-(4-fluoro-1-pyrimidin-2-yl-piperidine-4-carbonyl)-3,5-dihydro-2H-pyrido[3,4-f][1,4]oxazepine-9-carbonitrile] gave an IC50 of 0.1 to 100 nM. Molecule `CCC(C)(C)C(=O)N1CCOc2c(C#N)cncc2C1` [Example 54, 4-(2,2-dimethylbutanoyl)-3,5-dihydro-2H-pyrido[3,4-f][1,4]oxazepine-9-carbonitrile] has an IC50 of 0.1 to 100 nM. Molecule `CC(C)(CC1CC1)C(=O)N1CCOc2c(C#N)cncc2C1` [Example 58, 4-(3-cyclopropyl-2,2-dimethyl-propanoyl)-3,5-dihydro-2H-pyrido[3,4-f][1,4]oxazepine-9-carbonitrile] has an IC50 of 100 to 1000 nM. `CC1(C(=O)N2CCOc3c(C#N)cncc3C2)CCN(c2ncc(F)cn2)CC1(F)F` (centres unmarked) [Example 96, 4-[3,3-difluoro-1-(5-fluoropyrimidin-2-yl)-4-methyl-piperidine-4-carbonyl]-3,5-dihydro-2H-pyrido[3,4-f][1,4]oxazepine-9-carbonitrile] was tested, and the IC50 was 0.1 to 100 nM. For `CC1(C(=O)N2CCOc3c(C#N)cncc3C2)CCN(c2ncc(F)cn2)CC1` [Example 40, 4-[1-(5-fluoropyrimidin-2-yl)-4-methyl-piperidine-4-carbonyl]-3,5-dihydro-2H-pyrido[3,4-f][1,4]oxazepine-9-carbonitrile], the IC50 was 0.1 to 100 nM. With `N#Cc1cncc2c1OCCN(C(=O)C1(C(F)F)CCN(c3ncc(F)cn3)CC1)C2` [Example 94, 4-[4-(difluoromethyl)-1-(5-fluoropyrimidin-2-yl)piperidine-4-carbonyl]-3,5-dihydro-2H-pyrido[3,4-f][1,4]oxazepine-9-carbonitrile] the IC50 was 100 to 1000 nM. `COc1nc(N2CCC(C(=O)N3CCOc4c(C#N)cncc4C3)CC2)ncc1Cl` [Example 129, 4-[1-(5-chloro-4-methoxy-pyrimidin-2-yl)piperidine-4-carbonyl]-3,5-dihydro-2H-pyrido[3,4-f][1,4]oxazepine-9-carbonitrile] gave an IC50 of 0.1 to 100 nM. Work on `N#Cc1cnc(N2CCC(F)(C(=O)N3CCOc4c(F)cncc4C3)CC2)nc1` [Example 159, 2-[4-fluoro-4-(9-fluoro-3,5-dihydro-2H-pyrido[3,4-f][1,4]oxazepine-4-carbonyl)-1-piperidyl]pyrimidine-5-carbonitrile] yielded an IC50 of 100 to 1000 nM. With `N#Cc1cncc2c1OCCN(C(=O)C1(F)CCN(c3ncc(C(F)(F)F)cn3)CC1)C2` [Example 170, 4-[4-fluoro-1-[5-(trifluoromethyl)pyrimidin-2-yl]piperidine-4-carbonyl]-3,5-dihydro-2H-pyrido[3,4-f][1,4]oxazepine-9-carbonitrile] the IC50 was 100 to 1000 nM. For `CC(C)(C(=O)N1CCCc2ccccc2C1)C(F)F` [Example 5, 3,3-difluoro-2,2-dimethyl-1-(1,3,4,5-tetrahydro-2-benzazepin-2-yl)propan-1-one], the IC50 was 100 to 1000 nM. `N#Cc1cncc2c1OCCN(C(=O)C1(F)CCN(c3ccnc(C(F)(F)F)n3)CC1)C2` [Example 171] gave an IC50 of 100 to 1000 nM. In the case of `CC(C)(CC#N)C(=O)N1CCOc2c(C#N)cccc2C1` [Example 25, 4-(3-cyano-2,2-dimethyl-propanoyl)-3,5-dihydro-2H-1,4-benzoxazepine-9-carbonitrile], the IC50 is reported as 0.1 to 100 nM.

Same assay, conditions: GST-hRIPK1 (8-327), mean of at least two independent experiments
`N#Cc1cncc2c1OCCN(C(=O)C1(O)CCN(c3ncc(F)cn3)CC1F)C2` (centres unmarked) [Example 208, 4-[3-fluoro-1-(5-fluoropyrimidin-2-yl)-4-hydroxy-piperidine-4-carbonyl]-3,5-dihydro-2H-pyrido[3,4-f][1,4]oxazepine-9-carbonitrile] gave an IC50 of 100 to 1000 nM. `COC1(C(=O)N2CCOc3c(C#N)cncc3C2)CCN(c2ncc(F)c(C3CC3)n2)CC1` [Example 233, 4-[1-(4-cyclopropyl-5-fluoro-pyrimidin-2-yl)-4-methoxy-piperidine-4-carbonyl]-3,5-dihydro-2H-pyrido[3,4-f][1,4]oxazepine-9-carbonitrile] gave an IC50 of 0.1 to 100 nM. Work on `COc1cc(C(F)(F)F)nc(N2CCC(F)(C(=O)N3CCOc4c(C#N)cncc4C3)CC2)n1` [Example 232, 4-[4-fluoro-1-[4-methoxy-6-(trifluoromethyl)pyrimidin-2-yl]piperidine-4-carbonyl]-3,5-dihydro-2H-pyrido[3,4-f][1,4]oxazepine-9-carbonitrile] yielded an IC50 of 100 to 1000 nM. Work on `CC(F)C(C)(C)C(=O)N1CCOc2c(C#N)cncc2C1` (single isomer, unassigned) [Example 272, 4-(3-Fluoro-2,2-dimethyl-butanoyl)-3,5-dihydro-2H-pyrido[3,4-f][1,4]oxazepine-9-carbonitrile] yielded an IC50 of 0.1 to 100 nM. Molecule `CCC(C)(C(=O)N1CCOc2c(C#N)cncc2C1)C(F)F` (single isomer, unassigned) [Example 261, 4-(2-(Difluoromethyl)-2-methylbutanoyl)-2,3,4,5-tetrahydropyrido[3,4-f][1,4]oxazepine-9-carbonitrile] has an IC50 of 0.1 to 100 nM. In the case of `CC1(C(=O)N2CCOc3c(C#N)cncc3C2)CCN(c2ncc(F)cn2)CC1(F)F` (single isomer, unassigned) [Example 285, 4-[-3,3-Difluoro-1-(5-fluoropyrimidin-2-yl)-4-methyl-piperidine-4-carbonyl]-3,5-dihydro-2H-pyrido[3,4-f][1,4]oxazepine-9-carbonitrile], the IC50 is reported as 100 to 1000 nM. `CC(C)(C(=O)N1CCOc2c(C#N)cncc2C1)C1CC(n2nccn2)C1` (centres unmarked) [Example 275, 4-[2-Methyl-2-[3-(triazol-2-yl)cyclobutyl]propanoyl]-3,5-dihydro-2H-pyrido[3,4-f][1,4]oxazepine-9-carbonitrile] was tested, and the IC50 was 100 to 1000 nM. With `N#Cc1cncc2c1OCCN(C(=O)C1CCN(c3ncc(F)cn3)CCO1)C2` (centres unmarked) [Example 231, 4-[4-(5-fluoropyrimidin-2-yl)-1,4-oxazepane-7-carbonyl]-3,5-dihydro-2H-pyrido[3,4-f][1,4]oxazepine-9-carbonitrile] the IC50 was greater than 1000 nM. With `CCC(C)(CC#N)C(=O)N1CCOc2c(C#N)cncc2C1` (single isomer, unassigned) [Example 264, 4-[2-(Cyanomethyl)-2-methyl-butanoyl]-3,5-dihydro-2H-pyrido[3,4-f][1,4]oxazepine-9-carbonitrile] the IC50 was 0.1 to 100 nM. For `N#Cc1cncc2c1OCCN(C(=O)C1CCN(c3ccnc4c(Cl)cnn34)C[C@@H]1F)C2` (stereo partly drawn) [Example 227, 4-[1-(3-chloropyrazolo[1,5-a]pyrimidin-7-yl)-(3,4)-trans-3-fluoro-piperidine-4-carbonyl]-3,5-dihydro-2H-pyrido[3,4-f][1,4]oxazepine-9-carbonitrile], the IC50 was 0.1 to 100 nM. `N#Cc1cncc2c1OCCN(C(=O)C1CCN(c3ncc(F)cn3)CC1F)C2` (single isomer, unassigned) [Example 305, 4-[3-Fluoro-1-(5-fluoropyrimidin-2-yl)piperidine-4-carbonyl]-3,5-dihydro-2H-pyrido[3,4-f][1,4]oxazepine-9-carbonitrile] was tested, and the IC50 was 100 to 1000 nM. `CC(F)(F)C(C)(C(=O)N1CCOc2c(C#N)cncc2C1)C(F)F` (centres unmarked) [Example 269, 4-[2-(difluoromethyl)-3,3-difluoro-2-methyl-butanoyl]-3,5-dihydro-2H-pyrido[3,4-f][1,4]oxazepine-9-carbonitrile] was tested, and the IC50 was 100 to 1000 nM. For `CC(C)(C(=O)N1CCOc2c(C#N)cncc2C1)C1CC(Cl)C1` (centres unmarked) [Example 278, 4-[2-(3-chlorocyclobutyl)-2-methyl-propanoyl]-3,5-dihydro-2H-pyrido[3,4-f][1,4]oxazepine-9-carbonitrile], the IC50 was 0.1 to 100 nM. For `CC1(C(=O)N2CCOc3c(C#N)cncc3C2)CCCCO1` (centres unmarked) [Example 240, 4-(2-methyltetrahydropyran-2-carbonyl)-3,5-dihydro-2H-pyrido[3,4-f][1,4]oxazepine-9-carbonitrile], the IC50 was 100 to 1000 nM.
